Experiment [1] has as its target T1, Indoleamine 2,3-dioxygenase 1 (Homo sapiens, UniProt P14902). The experiment in a line: Inhibition of recombinant human IDO expressed in Escherichia coli using L-tryptophan as substrate after 60 mins by spectrophotometry.
Target sequence in this assay (P14902 whole entry): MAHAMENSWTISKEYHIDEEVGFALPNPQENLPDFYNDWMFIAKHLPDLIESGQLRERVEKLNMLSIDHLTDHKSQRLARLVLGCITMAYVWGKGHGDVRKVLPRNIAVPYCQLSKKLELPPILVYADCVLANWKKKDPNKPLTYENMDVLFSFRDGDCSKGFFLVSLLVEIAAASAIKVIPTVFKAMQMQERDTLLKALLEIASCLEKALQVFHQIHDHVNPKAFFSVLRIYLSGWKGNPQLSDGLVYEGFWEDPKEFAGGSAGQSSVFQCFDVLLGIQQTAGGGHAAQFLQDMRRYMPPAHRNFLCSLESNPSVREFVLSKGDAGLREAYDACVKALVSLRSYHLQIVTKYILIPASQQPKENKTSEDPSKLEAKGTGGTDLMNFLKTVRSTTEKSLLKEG
The target in experiment [2] is T1, Indoleamine 2,3-dioxygenase 1. The experiment in a line: Inhibition of recombinant human IDO expressed in Escherichia coli using L-tryptophan as substrate at 200 uM after 60 mins by spectrophotometry.
Target sequence in this assay (P14902 whole entry, looked up): as the sequence (P14902 whole entry) above

The source made the active and inactive calls. No cut-off for these calls is given here.

In the case of `CC1=CCC[C@@H](C)[C@]1(C)CC[C@@]1(C)[C@@H]2CC[C@]3(C)[C@H](CC[C@]4(C)c5c(C=O)ccc(O)c5C[C@@H]34)[C@@]2(C)CC[C@@H]1O`, in experiment [1], the IC50 is 29 µM.
The same measure, in the same setting: for `CC1(C)CCC[C@]2(C)O[C@H]3CC[C@@]4(C)[C@@H](CC[C@]5(C)[C@@H]4CC[C@]4(C)c6c(C=O)ccc(O)c6C[C@@H]54)[C@]3(C)CC[C@@H]12` the value was 53 µM.
In the case of `O=Cc1ccccc1`, the inhibition result in experiment [2] is “inactive”.
Regarding `O=Cc1ccc(O)cc1`, the inhibition result in experiment [2] is “inactive”.
The same measure, in the same setting: for `O=C(O)C(O)c1ccc(O)cc1` (stereo not drawn) the value was “inactive”.
As to `CC1=CCC[C@@H](C)[C@]1(C)CC[C@@]1(C)[C@@H]2CC[C@]3(C)[C@H](CC[C@]4(C)c5c(C(O)C(=O)O)ccc(O)c5C[C@@H]34)[C@@]2(C)CC[C@@H]1O` (relative stereo), in experiment [1], the IC50 worked out at 11 µM.
The same measure, in the same setting: for `CC1(C)CCC[C@]2(C)O[C@H]3CC[C@@]4(C)[C@@H](CC[C@]5(C)[C@@H]4CC[C@]4(C)c6c(C(O)C(=O)O)ccc(O)c6C[C@@H]54)[C@]3(C)CC[C@@H]12` (stereo partly drawn) [HALICLOIC ACID A] the value was 10 µM.
For the molecule `O=C(O)C(O)c1ccccc1` (stereo not drawn), in experiment [2], the inhibition result is “inactive”.

A word on the IC50: it is the midpoint of a concentration-inhibition curve.

These data come from ChEMBL document CHEMBL2086344, “Halicloic acids A and B isolated from the marine sponge Haliclona sp. collected in the Philippines inhibit indoleamine 2,3-dioxygenase” (J Nat Prod, 2012).
